The test system of test [1] is collagen-induced arthritis in DBA/1 J mice. The experiment in a line: Oral administration of peptide in collagen-induced arthritis (CIA). In kind it is in vivo, mouse. As to the method: Figure 6 Oral tolerance of MycHSP70_287–306 peptides in a collagen-induced arthritis model. (A,B) The MycHSP70_287–306 peptide or control (PBS alone) was orally administered to bovine type II collagen-immunized DBA/1 J mice after the occurrence of CIA for 5 continuous days (n = 12). Mice were sacrificed on day 35. Arthritis scores were measured by finger and paw swelling, and histological scores were measured by cell infiltration (C), pannus formation (P), and bone destruction (B). (C) Splenic CD4^+ T cell proliferation from CIA-induced DBA/1 J mice in response to a recall antigen (Ag) stimulation (MycHSP70_287–306 and BiP336–355 epitopes, and heat-denatured bovine type II collagen (BC II)). Proliferation was determined by[3]-H thymidine incorporation. (D) Serum anti-BiP and anti-BC II antibody titers were measured by ELISA. (E,F) Mouse IL-10 and TGF-beta1 concentrations in the splenic CD4^+ T cell culture were measured by ELISA. Data were representative of at least three independent trials. *p < 0.05, **p < 0.01, ***p < 0.001.
Serum antibodies were measured by ELISA as previously reported. Briefly, 96-well plates (Thermo Fisher Scientific) were coated with 5 μg/mL of each antigen and dissolved in 0.1 M NaHCO3. Diluted samples (100x) were applied, followed by goat anti-human IgG-horseradish peroxidase (HRP) (5000:1,Vector) or goat anti-mouse IgG-HRP (5000:1, Life Technologies) detection antibodies and TMB solution (KPL) for development.
CIA in the background of DBA/1 J female mice (SLC Japan) was performed and arthritis scores were acquired as previously described. In the therapeutic experiments, mice were administered 200 μg of MycHSP287–306 peptides orally for 5 continuous days following the onset of arthritis. Mice were sacrificed on day 35, and the CD4^+ T cell culture was performed as described above. Mouse cytokine concentrations in the supernatants were measured using a mouse IL-10 ELISA kit and mouse/human TGF-beta 1 ELISA kit (eBioscience) according to the manufacturer’s protocol. Tissue samples were embedded in paraffin wax after 10% formaldehyde fixation and decalcification. Sections were stained with hematoxylin and eosin. Synovial tissues were graded by mononuclear cell infiltration, pannus formation, and cartilage erosion, as described previously. All animal experiments were conducted in accordance with Institutional and National Guidelines, and the protocols were approved by the Ethical Committee on Animal Experiments of the University of Tokyo. […]
Oral tolerance of MycHSP70287-306 peptides on collagen-induced arthritis (CIA) model. The experimental protocol was the same as Figure 6.
(A)(B)Mouse IL-17 and IFN-gamma concentrations in the splenic CD4+ T cell culture was measured by ELISA (Mouse cytokine ELISA ready-set-go, eBioscience) according to the manufacture’s protocol. (C) The frequencies of splenic regulatory T cells in CIA (n=4, each). FACS analysis was performed by FACS Vantage (BD Bioscience). Cells were stained by anti-mouse CD4
APC antibody, anti-mouse CD25 FITC antibody, FOXP3 staining was performed using anti-mouse Foxp3 PE antibody (eBioscience) by using […]

The target in test [2] is T1, HLA-DRB1*0405 (Homo sapiens, UniProt P01903+P01911, A100R/A169T/D86S/F76Y/I96L/K127E/L162R/M171V/N62H/P40V/Q125Y/R42H/S133A/S149N/S66Y/V115G/V209L/W38E).
T1 construct: Soluble DR4 molecules in the supernatant were collected and purified; made in house; host or cells: Drosophila S2 cells
The experiment in a line: HLA-DR4 peptide binding assay (competition with labelled HA peptide). To be noted: inhibition of labelled HA peptide (0.5 nM) binding to 40 nM purified DR4, 37 °C, 4 h. From the text: (§1) Figure 4 HLA-DR4 binding assay. (A) Binding activities between a HLA-DRB1*0401 and 0405 molecule and MycHSP70_287–306. Binding activities were estimated by the inhibition of peroxidase-labeled HA307–318 peptide binding to a HLA-DRB1 molecule. (B) Binding of MycHSP70_287–306 with alanine-substituted peptides to HLA-DRB1*0405 molecules. A MycHSP70_287–306-derived peptide in which an amino residue was substituted by an alanine residue. Inhibitory concentration 50% (IC50) was used as a measure of binding activity. *p < 0.05, **p < 0.01, ***p < 0.001.
(§2) The procedure to assess peptide binding to HLA-DRB1*0401 and 0405 was described in a previous study. In brief, HLA-DRA1B1*0401 and 0405 was cloned and transfected into S2 Drosophila cells. Soluble DR4 molecules in the supernatant were collected and purified through an affinity column coupled with the anti-DR antibody LB3.1. In the peptide binding assay, a 40 nM solution of purified DR4 was incubated at 37 °C for 4 h with the HA307–319 peptide (0.5 nM), which had been labeled at the N terminus with biotin. The indicated concentrations of the peptides were added as competitors to HA peptide binding. […] Bound biotinylated peptides were detected by an incubation with streptavidin-alkaline phosphatase. An automatic microplate reader (Bio-rad 550, Bio-rad) was used to measure optical density.

In test [3] the target is T2, HLA-DRB1*0401 (Homo sapiens, UniProt P01903+P01911, A100K/A169T/F76Y/I96L/K127E/L162R/M171V/N62H/P40V/Q125Y/R42H/S133A/S149N/S66Y/V115G/V209L/W38E).
T2 construct: Soluble DR4 molecules in the supernatant were collected and purified; made in house; host or cells: Drosophila S2 cells
The test is described as above. Particulars: inhibition of labelled HA peptide (0.5 nM) binding to 40 nM purified DR4, 37 °C, 4 h.
Description: as §1, §2

Where [4] appears, read: CIA mice given peptide orally vs PBS, ELISA.

With DRTRKPFQSVIADTGISVSE [MycHSP70_287–306], the “development of arthritis (arthritis scores)” value in test [1] (200 μg peptide orally for 5 continuous days after onset of arthritis, vs PBS, n = 12, sacrificed day 35) was “significantly improved”. Also, in test [1] (200 μg peptide orally for 5 continuous days, cell infiltration, pannus formation, bone destruction, day 35), the histological scores entry is “significantly improved”. Moreover, in test [1] (setting [4]), the “serum anti-BC II antibody titers” value is recorded as “significantly decreased” and the “serum anti-BiP antibody titers” value was “significantly decreased”. In addition, in test [1] (splenic, CIA mice given peptide orally vs PBS, n=4 each, FACS), the “frequency of CD4+ CD25+ Foxp3+ regulatory T cells” value is “increased”. Also, the “binding to HLA-DRB1*0405 molecule” value in test [2] is recorded as “bound”. Besides, the “binding to HLA-DRB1*0401 molecule” value in test [3] is “bound”.

Values taken from PMC4772543, “Immune responses to Mycobacterial heat shock protein 70 accompany self-reactivity to human BiP in rheumatoid arthritis” (Scientific Reports, 2016).
